According to PubChem BioAssay (NCI):
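Briefly, cells in 96-well plates were exposed to five compound concentrations for 48 h, and endpoints were estimated by linear interpolation. GI50 = concentration required for 50% inhibition of growth. TGI is the concentration that stops growth completely.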 Where a SMILES comes first, the peptide text is derived from it.

What was measured:
Assay in all cases: NCI tumour cell line growth inhibition, 48 h
BT-549 breast = tested on: BT-549 breast
DMS 273 small cell lung = tested on: DMS 273 small cell lung
DLD-1 colon = tested on: DLD-1 colon
XF 498 CNS = tested on: XF 498 CNS
M19-MEL melanoma = tested on: M19-MEL melanoma
LXFL 529 NSCLC = tested on: LXFL 529 NSCLC
MDA-N = tested on: MDA-N
P388/ADR leukemia = tested on: P388/ADR leukemia
SN12K1 renal = tested on: SN12K1 renal
P388 leukemia = tested on: P388 leukemia
RXF-631 renal = tested on: RXF-631 renal

| Structure (SMILES) | TGI (BT-549 breast) [µM] | TGI (DMS 273 small cell lung) [µM] | TGI (DLD-1 colon) [µM] | TGI (MDA-N) [µM] | further results |
| --- | --- | --- | --- | --- | --- |
| COC1=CC(c2ccc[nH]2)=N/C1=C\c1[nH]c(C)c(CC(=O)NCc2ccccc2)c1C | 3.06 |  |  |  | GI50 (BT-549 breast): 1.41 µM |
| O=C([O-])c1ccccc1Nc1ccccc1C(=O)[O-].[OH3+].[Zn+2] |  | 29.2 | > 83.7 |  | TGI (XF 498 CNS): 57.3 µM; TGI (M19-MEL melanoma): 50.1 µM; TGI (LXFL 529 NSCLC): 44.7 µM |
| O=C(N/N=C\c1ccc(N(CCCl)CCCl)cc1)c1cccnc1 | > 100 |  |  |  | GI50 (BT-549 breast): 19.7 µM |
| COc1cc2c(c(OC)c1OC)-c1ccc(OC)c(=O)cc1C(NC(=O)CCCCCNc1ccc(N=[N+]=[N-])cc1[N+](=O)[O-])CC2 (centres undefined) |  |  |  | < 0.01 |  |
| COc1c(O)cc2c(c1O)C(=O)C(Cc1ccc(O)cc1)CO2 (centres undefined) | > 100 |  |  | > 100 |  |
| CC1=C/C(=N\NS(=O)(=O)c2ccc([N+](=O)[O-])cc2)CC(C)(C)C1 |  |  |  | > 100 |  |
| N=C1c2ccccc2C(=O)c2c(NCCNCCO)ccc(O)c21 |  | 18.9 | 22.3 |  | TGI (M19-MEL melanoma): 17.3 µM; TGI (LXFL 529 NSCLC): 27.8 µM |
| CC(=O)NC(CS)C(=O)NC(CO)C(=O)NC(CO)C(=O)NC(Cc1c[nH]c2ccccc12)C(=O)N1CCCC1C(=O)NC(CO)C(=O)NC(Cc1c[nH]c2ccccc12)C(=O)NC(Cc1c[nH]cn1)C(=O)NC(CO)C(=O)NC(Cc1c[nH]c2ccccc12)C(=O)NCC(=O)NCC(=O)NC(C)C(=O)NC(CCC(N)=O)C(=O)NC(CCCCN)C(=O)NC(C)C(=O)NC(CCCNC(=N)N)C(=O)NC(CCCCN)C(N)=O (centres undefined) (Ac-CSSWPSWHSWGGAQKARK-NH2; configuration not given here) | 41 |  |  | > 50 |  |
| N#CC1(C#N)C(=O)c2ccncc2C1=O | > 100 |  |  | > 100 |  |
| O=S(=O)(O)c1ccc(N=Nc2ccc(N=Nc3c(O)ccc4ccc(S(=O)(=O)O)cc34)cc2)cc1 | > 100 |  |  | > 100 |  |
| CN(CCO)CCC1COc2ccccc2O1 (centres undefined) |  |  |  | > 10 |  |
| Brc1ccc2nc(-c3cccs3)nc(N3CCN(c4ccccc4)CC3)c2c1 | > 100 |  |  |  |  |
| CC(C)(C)c1ccc(NS(=O)(=O)c2ccc(N)cc2)cc1 | 54.8 |  |  | 54.7 |  |
| COc1cc(-c2n/c(=C\c3c(O)[nH]c4ccccc34)cc3c2=Nc2ccccc2-3)ccc1F | 18.1 |  |  |  | GI50 (BT-549 breast): 4.07 µM |
| C/C=C(\C)C(=O)OC1C2C(C)=CC(=O)C(O)C2(C)C2C3(O)OCC24C1OC(=O)C(OC(C)=O)C4C(C)C3O (centres undefined) |  | 0.0382 | 0.078 |  | TGI (XF 498 CNS): 0.0577 µM; TGI (M19-MEL melanoma): 0.0455 µM; TGI (P388/ADR leukemia): 0.924 µM |
| CCOC(=O)NC(=O)c1cn(CCN(CCO)C(=O)NCCCCCCNC(=O)N(CCO)CCn2cc(C(=O)NC(=O)OCC)c(=O)[nH]c2=O)c(=O)[nH]c1=O |  | > 100 | > 100 |  | TGI (SN12K1 renal): > 100 µM; TGI (XF 498 CNS): > 100 µM; TGI (P388 leukemia): > 100 µM; TGI (M19-MEL melanoma): > 100 µM; TGI (P388/ADR leukemia): > 100 µM |
| CCCC[n+]1ccn(-c2nc3ccccc3n2C)c1 |  | > 100 | > 100 |  | TGI (RXF-631 renal): > 100 µM; TGI (LXFL 529 NSCLC): > 100 µM |
| COc1nc2ccc(Cl)c(C(O)c3ccccc3)c2nc1OC (centres undefined) | 80.7 |  |  | 54.8 |  |
| COC(Cc1cc(C(O)(c2ccc(C(C)(C)C)cc2)c2cc(CC(OC)(c3cc(C(OC)(c4ccc(C(C)(C)C)cc4)c4ccc(C(C)(C)C)cc4)c(C)cc3C)c3cc(C(OC)(c4ccc(C(C)(C)C)cc4)c4ccc(C(C)(C)C)cc4)c(C)cc3C)c(C)cc2C)c(C)cc1C)(c1cc(C(OC)(c2ccc(C(C)(C)C)cc2)c2ccc(C(C)(C)C)cc2)c(C)cc1C)c1cc(C(OC)(c2ccc(C(C)(C)C)cc2)c2ccc(C(C)(C)C)cc2)c(C)cc1C | > 75 |  |  | > 75 |  |
| N/C(=C\c1ccc(/C=C(\NC(=O)c2ccccc2)c2nc3c([nH]2)C(=O)c2ccccc2C3=O)cc1)c1nc2c([nH]1)C(=O)c1ccccc1C2=O |  | 42.1 | 33 |  | TGI (XF 498 CNS): 24.3 µM; TGI (LXFL 529 NSCLC): 24.6 µM |
| N#C[S-].[Ce+3].c1ccc(-c2ccccn2)nc1.c1ccc(-c2ccccn2)nc1.c1ccc(-c2ccccn2)nc1 |  | 33.9 | > 100 |  | GI50 (DMS 273 small cell lung): 11 µM; GI50 (DLD-1 colon): 5.26 µM; GI50 (M19-MEL melanoma): 15.4 µM; TGI (M19-MEL melanoma): 65.8 µM |
